Experimental data from patent EP4703354A1, “COMPOUND AS CCR6 ANTAGONIST, AND PHARMACEUTICAL COMPOSITION AND USE THEREOF” (Wuhan Createrna Science and Technology Co.,Ltd., priority 2023, dated 2024).

Experiments:
[1] = in vitro liver microsome metabolic stability, rat; type: in vitro ADME; conditions: Rat liver microsomes, 37°C
Procedure, shortened: (§1)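 Test compound at 1 µM final (100 µM working solution diluted 1:100) incubated at 37°C with liver microsomes in pH 7.4 phosphate buffer with NADP/G6P/G6PDH/MgCl2 regenerating system; sampled 0–30 min, LC-MS/MS vs internal standard. T1/2 = 0.693/k from remaining-fraction decay.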

[2] = in vitro liver microsome metabolic stability, beagle dog; type: in vitro ADME; conditions: Beagle dog liver microsomes, 37°C
Procedure, shortened: as §1

[3] = in vitro liver microsome metabolic stability, human; type: in vitro ADME; conditions: Human liver microsomes, 37°C
Procedure, shortened: as §1

[4] = in vitro liver microsome metabolic stability, mouse; type: in vitro ADME; conditions: Mouse liver microsomes, 37°C
Experimental: Preparation of working solutions for test compounds and standards: An appropriate amount of the compound was accurately weighed and dissolved in a corresponding volume of suitable solvent to prepare 1 mM stock solutions of the test compounds and standards. The stock solutions were then diluted with appropriate solvent to obtain 100 µM working solutions of the test compounds, ensuring that the DMSO content in the working solutions remained below 10%.
The internal standard compound testosterone (or tolbutamide) and its corresponding solvent, internal standard concentration (200 ng/mL), were selected based on the properties of the test compound.
• Solution A: 0.1 mol/L K2HPO4 (2.28 g K2HPO4·3H2O was dissolved in 100 mL of double-distilled water); • Solution B: 0.1 mol/L KH2PO4 (1.36 g KH2PO4 was dissolved in 100 mL of double-distilled water); • 80.2 mL of Solution A and 19.8 mL of Solution B were mixed thoroughly, and the pH was adjusted to 7.4.
37.5 mg of glycine was weighed, dissolved in 100 mL of ultrapure water, and adjusted to pH 8.0 with NaOH.
1.25 mg of glucose-6-phosphate dehydrogenase (400 U/mg) was weighed (the specific amount weighed was calculated based on the activity of the purchased glucose-6-phosphate dehydrogenase), dissolved in 1 mL of glycine buffer to a concentration of 500 U/mL, aliquoted into 20 µL per tube, and stored at -20°C for future use.
7.83 mg of NADP, 0.06 mL of D-glucose-6-phosphate (260 mg/mL), and 10.17 mg of MgCl2·6H2O were precisely weighed.
The mixture was dissolved in 1 mL of pure water. The cofactor ratio composition: NADP 10 mM, D-glucose-6-phosphate 60 mM, MgCl2·6H2O 50 mM.
The reaction system (taking a 500 µL system as an example) was composed of the following solution ratios: 416.5 µL phosphate buffer, 5 µL compound working solution, 25 µL liver microsomes, 3.5 µL glucose-6-phosphate dehydrogenase, and 50 µL cofactor solution. The total incubation volume could be adjusted according to experimental requirements.
416.5 µL of phosphate buffer was taken, 25 µL of liver microsomes, 3.5 µL of glucose-6-phosphate dehydrogenase, and 50 µL of cofactor solution were added, vortexed twice to mix, and preincubated in a 37°C water bath for 5 minutes. Then, 5 µL of the test compound working solution was added, vortexed twice to mix, each time for 2-3 seconds, and placed in a 37°C water bath to initiate the reaction, with two parallel samples set. At 0.5 min, 1 min, 2 min, 5 min, 15 min, and 30 min after the reaction, 50 µL of the mixture was taken and added to centrifuge tubes containing 200 µL of 0°C pre-cooled internal standard working solution to terminate the reaction, vortexed for 1 minute to mix, and centrifuged at 13,000 rpm for 10 minutes in a 4°C pre-cooled high-speed centrifuge. The supernatant was collected for analysis. After the compound was added and vortex-mixed, 50 µL of the mixture was rapidly transferred to a centrifuge tube containing 200 µL of a pre-cooled (0°C) internal standard working solution to terminate the reaction, vortex-mixed for 1 minute, and used as the relative zero-point sample (relative to the standard group). The sample was then placed into a 37°C water bath to initiate the reaction, and timing was started.
The sample analysis of the test compound was performed using the liquid chromatography-tandem mass spectrometry (LCMS/MS) method. The semi-quantitative determination was performed using the ratio of the analyte peak area to the internal standard peak area. The retention times of the analyte and internal standard, chromatogram acquisition, and chromatogram integration were processed using Analyst software.
The in vitro elimination rate constant k of the test compound and the control compound was determined by converting the ratio of the peak area of the test compound to the internal standard into the remaining rate, and T1/2 was then calculated according to the following formula. T1/2 = (Ln2)/(k) = (0.693)/(k) [formula] Table 3. […]

human CXCR2 = target: T1, human CXCR2 (Homo sapiens, UniProt P25025); assay: human CXCR2 calcium flux activity (FLIPR, HEK293 cells stably expressing human CXCR2, IL-8 stimulation); type: cell-based; conditions: HEK293 cells stably expressing human CXCR2, EC80 human IL-8; read-out: CXCR2 inhibitory activity, IC50
T1 construct: expressed in transfected cells; host or cells: HEK293
T1 sequence (P25025 1-360): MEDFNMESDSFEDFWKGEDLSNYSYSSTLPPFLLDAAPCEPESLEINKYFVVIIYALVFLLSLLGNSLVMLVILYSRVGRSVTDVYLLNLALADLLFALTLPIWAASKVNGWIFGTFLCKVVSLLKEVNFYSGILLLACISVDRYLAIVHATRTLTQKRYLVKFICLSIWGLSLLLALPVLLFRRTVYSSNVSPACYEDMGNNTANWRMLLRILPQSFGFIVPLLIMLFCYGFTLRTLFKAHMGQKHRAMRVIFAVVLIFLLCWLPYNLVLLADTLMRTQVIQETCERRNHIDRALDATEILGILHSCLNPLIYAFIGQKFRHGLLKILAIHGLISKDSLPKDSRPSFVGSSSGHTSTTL
Experimental: The activity of the compounds was evaluated using HEK293 cells stably expressing human CXCR2 via the FLIPR platform. A 384-well black cell culture plate (Greiner, 781946) was used, with a seeding density of 20,000 cells/well, and incubated overnight at 37°C in a 5% CO2 incubator. The culture medium in the cell plate wells was removed, and 20 µL of Fluo-4 Direct™ Calcium Assay Buffer (Invitrogen, F10471, Component C), 20 µL of 2× Fluo-4 Direct™ Calcium Assay Reagent (Invitrogen, F10471, Component A) working solution, and 10 µL of 6× test compound working solution were sequentially added to each well. The cell plate was incubated in a 37 °C, 5% CO2 incubator for 50 min, followed by a 10 min incubation at room temperature. Additionally, a 6×EC80 human IL-8 (Sigma, SRP3311) working solution was prepared. After the incubation was completed, 10 µL/well of the 6×EC80 human IL-8 working solution was transferred to the corresponding cell wells using a FLIPR instrument, and the fluorescence signal changes at an excitation wavelength of 494 nm and an emission wavelength of 516 nm were recorded over 130 s. The difference between the maximum fluorescence signal (RFUMax) and the minimum fluorescence signal (RFUMin) was used as the output signal. The compound inhibition rate and the log value of the compound concentration were calculated, and a four-parameter fitting analysis was performed using GraphPad Prism 8 software to obtain the IC50 value of the test compound. Table 1. Inhibitory activity data of compounds against CCR6 and CXCR2

[5] = in vivo pharmacokinetic study in SD rats; conditions: male, rat, plasma; for bioavailability: 1 mg/kg PO vs 1 mg/kg IV, read-out: Oral bioavailability F (%); for AUC(0-t) / Cmax / half-life: 1 mg/kg
Procedure, shortened: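 Male SD rats (180-200 g), 3 per route: single fasted oral gavage in 1% Tween 80 or tail-vein IV bolus in 50% PEG400. Orbital blood into EDTA-K2 sampled to 8 h; plasma analysed and PK parameters derived by non-compartmental analysis.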

human CCR6 = target: T2, human CCR6 (Homo sapiens, UniProt P51684); assay: human CCR6 calcium flux activity (FLIPR, HEK293 cells stably expressing human CCR6, CCL20 stimulation); type: cell-based; conditions: for IC50: HEK293 cells stably expressing human CCR6, EC80 human MIP-3 alpha/CCL20, read-out: CCR6 inhibitory activity, IC50; for CCR6 selectivity: ratio of CXCR2 IC50 to CCR6 IC50
T2 construct: expressed in transfected cells; host or cells: HEK293
T2 sequence (P51684 1-374): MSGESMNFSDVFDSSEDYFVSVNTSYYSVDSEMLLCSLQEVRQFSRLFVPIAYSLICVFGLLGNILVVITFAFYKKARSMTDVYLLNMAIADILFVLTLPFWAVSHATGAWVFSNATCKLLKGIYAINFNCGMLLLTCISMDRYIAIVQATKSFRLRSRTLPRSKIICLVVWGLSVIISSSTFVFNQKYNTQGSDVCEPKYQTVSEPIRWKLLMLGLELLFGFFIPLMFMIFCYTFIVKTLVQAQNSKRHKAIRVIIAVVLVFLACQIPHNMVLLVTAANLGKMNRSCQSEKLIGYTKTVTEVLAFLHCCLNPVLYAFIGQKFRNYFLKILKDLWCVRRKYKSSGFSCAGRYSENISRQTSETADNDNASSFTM
Procedure, shortened: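 Compounds preincubated with Fluo-4 Direct-loaded cells 50 min at 37 °C, then 10 min at room temperature, before CCL20 challenge at EC80. Fluorescence (ex 494/em 516 nm) recorded 90 s; max−min signal gives inhibition, four-parameter fit yields IC50.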

| Liver microsome T1-2 (min) Rat [1] [min] | Liver microsome T1-2 (min) Beagle dog [2] [min] | Liver microsome T1-2 (min) Human [3] [min] | Liver microsome T1-2 (min) Mouse [4] [min] | Compound | IC50 (human CXCR2) [nM] | bioavailability [5] [%] | AUC(0-t) ([5]; IV) [ng·h/mL] | Cmax ([5]; IV) [ng/mL] | AUC(0-t) ([5]; PO) [ng·h/mL] | Cmax ([5]; PO) [ng/mL] | half-life ([5]; PO) [h] | IC50 (human CCR6) [nM] | CCR6 selectivity (human CCR6) | half-life ([5]; IV) [h] |
| --- | --- | --- | --- | --- | --- | --- | --- | --- | --- | --- | --- | --- | --- | --- |
| 32.18 | 222.01 | 343.09 | 550.74 | Cc1cccnc1[C@@H](Nc1c(Nc2ccnc(C(=O)N(C)C)c2O)c(=O)c1=O)[C@@]1(C)CCC(F)(F)C1 [125C] |  |  |  |  |  |  |  |  |  |  |
|  |  |  |  | Cc1cccnc1[C@H](Nc1c(Nc2ccnc(C(=O)N(C)C)c2O)c(=O)c1=O)C1(C)CCCC1 [compound 018, (R)-3-hydroxy-N,N-dimethyl-4-((2-(((1-methylcyclopentyl)(3-methylpyridin-2-yl)methyl)amino)-3,4-dioxocyclobut-1-en-1-yl)amino)picolinamide] | 92000 | 49.1 | 1160 | 2240 | 1710 | 920 | 4.3 | 11 | 8363.5 |  |
|  |  |  |  | CN(C)C(=O)c1nccc(Nc2c(N[C@@H](c3nc(F)ccc3F)C3(C)CCCC3)c(=O)c2=O)c1O [compound 023, (R)-4-((2-(((3,6-difluoropyridin-2-yl)(1-methylcyclopentyl)methyl)amino)-3,4-dioxocyclobut-1-en-1-yl)amino)-3-hydroxy-N,N-dimethylpicolinamide] | 204 | 30.5 | 2020 | 4130 | 616 | 335 | 2.08 | 0.9 | 227.0 |  |
|  |  |  |  | CN(C)C(=O)c1nccc(Nc2c(N[C@@H](c3nc(CF)ccc3F)C3(C)CCCC3)c(=O)c2=O)c1O [compound 094, (R)-4-((2-(((3-fluoro-6-(fluoromethyl)pyridin-2-yl)(1-methylcyclopentyl)methyl)amino)-3,4-dioxocyclobut-1-en-1-yl)amino)-3-hydroxy-N,N-dimethylpicolinamide] | 192 | 22.8 | 1210 | 4460 | 276 | 208 | 2.18 | 1.1 | 174.73 | 0.37 |
|  |  |  |  | CN(C)C(=O)c1nccc(Nc2c(N[C@@H](c3nc(C(F)F)ccc3F)C3(C)CCCC3)c(=O)c2=O)c1O [compound 109, (R)-4-((2-(((6-(difluoromethyl)-3-fluoropyridin-2-yl)(1-methylcyclopentyl)methyl)amino)-3,4-dioxocyclobut-1-en-1-yl)amino)-3-hydroxy-N,N-dimethylpicolinamide] | 133 | 61.8 | 786 | 3140 | 485 | 264 | 2.07 | 2.4 | 55.5 | 0.5 |
|  |  |  |  | CN(C)C(=O)c1nccc(Nc2c(N[C@@H](c3nc(Cl)ccc3F)C3(C)CCCC3)c(=O)c2=O)c1O [compound 053, (R)-4-((2-(((6-chloro-3-fluoropyridin-2-yl)(1-methylcyclopentyl)methyl)amino)-3,4-dioxocyclobut-1-en-1-yl)amino)-3-hydroxy-N,N-dimethylpicolinamide] | 1750 | 33.1 | 1800 | 3890 | 596 | 380 | 2.33 | 1.5 | 1163.3 |  |
| 83.07 | 220.11 | 572.07 | 19686.4 | Cc1cccnc1[C@@H](Nc1c(Nc2ccnc(C(=O)N(C)C)c2O)c(=O)c1=O)[C@]1(C)CCC(F)(F)C1 (single isomer, unassigned) [125D] |  |  |  |  |  |  |  |  |  |  |
